Test results: patent US20030180345A1, “Compositions and methods for inhibiting islet dysfunction and autoimmune disorders” (priority 2000, published 2003)
Where two headings read alike, the source gives them in different places.

Columns and labels:
fetal islet β cells = assay: SNP-induced apoptosis in cultured fetal islets (TUNEL, confocal microscopy); format: cell-based, Wistar rats; conditions: SNP 100 μmol/l
Procedure: Animals and Diets. Adult virgin female Wistar rats were caged overnight with males and copulation was verified the next morning. Animals were maintained at 25° C. with a 10 h-14 h dark-light cycle. Pregnant rats were divided into two groups and fed one of the following isocaloric diets: either a control diet (C) containing 20% protein or a low protein diet (LP) containing 8% protein. The composition of the diet was as described previously by Snoeck et al. 1990 (Biol. Neonate 57, 107-118). The diets were purchased from Hope Farms (Woerden, Holland). Animals in both the groups had free access to water at all times. At 21.5 days of gestation, females were sacrificed by decapitation and fetuses removed.
Islet culture and treatment. Fetal islets were isolated as described by Mourmeaux et al. 1985 (Molecular and Cellular Endocrinology 39:237-246). Islets were cultured in 35 mm Petri-dishes (Falcon plastics, Los Angeles, Calif.) in RPMI 1640 medium (Gibco, Grand Island, N.Y., USA) with 10% Fetal Bovine Serum and antibiotics (penicillin 200 U/ml, streptomycin 0.2 mg/ml). Petri dishes were incubated at 37° C. with 5% CO2 in air. The culture medium was changed daily after the second day. On the 5th day of culture, islets were rinsed twice with serum free DME/F12 medium (1:1, v/v, Gibco, Paisley, Scotland) and subsequently incubated for 42 hours in this medium. […]
TUNEL method for evaluating apoptosis. Apoptosis was evaluated by the TUNEL method described herein, and visualized with confocal microscopy. Cultured islets were fixed in methanol and stored at −20° C. until analysis. The tissue was then washed with phosphate buffered saline (PBS) for 3 min, and a terminal deoxynucleotidyl transferase (TdT) reaction buffer (50 μl) was added. The 50 μl of TdT solution was prepared using 10 μl of 5× concentrated buffer solution (1 mol/l potassium cacodylate; 125 mmol/l Tris-HCl, pH 6.6; 1.26 mg bovine serum albumin). Cobalt chloride (5 μl of 25 mmol/l), 0.5 μl (12.5 units) of TdT (both from Boehringer Mannheim, Germany), and 0.25 nmoles of BODIPY-FL-X-14-dUTP (Molecular Probes, Eugene, Oreg. USA) were added, along with distilled water, up to 50 μl. Islets were incubated in Petri dishes with the TdT reaction buffer for 60 min at 37° C., then rinsed twice with 15 mmol/l EDTA (pH 8.0) in PBS and once with 0.1% Triton X-100 in PBS. Then, 2 ml of PBS containing 2.5 μg/ml of propidium iodide (Molecular Probes, Eugene, Oreg. USA) was added to the dishes for 5 min. Finally, islet cells were washed with 15 mmol/l EDTA (pH 8.0). Islet cells were then double-labelled for apoptotic nuclei, showing the BODIPY-FL-dUTP label in […] and total nuclei with propidium iodide in red.
Confocal microscopy. Staining probes were visualised through a confocal laser scanning microscopy system (MRC-1024 UV; BIO-RAD, UK) equipped with Argon ion and Krypton/Argon ion lasers. BODIPY-FL was excited at 503 nm, ethidium bromide at 510 nm, propidium iodide at 536 nm and Hoechst 33342 at 346 nm. The emissions were recorded respectively at 522/32 nm, 605/32 nm and 455/30 nm. Four to six optical sections were collected at every 15 μm through the islet. The number of BODIPY-FL-positive or ethidium bromide-positive nuclei were reported and expressed as a percentage of the total number of nuclei.
Animals, diets, and fetal islet isolation procedures were conducted as described in Example 1.

[1] = SIN-1
Procedure: Chemiluminescence measurements. Luminol (5-amino-2,3-dihydro-1-4-phtalazinedione) at 400 μmol/l (Sigma Chemical Co.), taurine (0.3 or 3 mmol/l), methionine (0.1 or 1 mmol/l) and β-alanine (0.3 or 3 mmol/l) stock solutions were prepared in PBS. Sydnonimine (SIN-1), also known as 3-morpholinosydnonimine, a source of peroxynitrite, was purchased from Sigma Chemical Co. SIN-1 was prepared as 100 μmol in 1 mol/l NaOH. A reaction was initiated by simultaneous injection of luminol and SIN-1 into wells containing PBS either alone or with supplemental amino acid levels as noted above. Chemiluminescence emitted by luminol in the presence of peroxynitrite was measured every 30 seconds over 20 minutes in a chemifluorophotometer (MicroLumat LB96P, EG&G BERTHOLD), and was quantified as light intensity (10^8 RLU).
Nitric oxide is a reactive free radical which leads to peroxynitrite formation, another reactive free radical, by interaction with superoxide (NO+OO^−→ONOO^−). […] Luminol-derived chemiluminescence induced by peroxynitrite produced by the decomposition of sydnonimine (SIN-1) was evaluated to investigate the possibility that taurine quenched the peroxynitrite formed from NO.

fetal islet cells = assay: IL1β-induced apoptosis in cultured fetal islets (TUNEL); format: cell-based, Wistar rats; conditions: 50 U/ml IL 1β for 24 hours; C and LP groups
Procedure: The effect of in vitro taurine on the effect of IL1β-induced apoptosis was assessed. Fetal islets were isolated as described above in Example 1. On the 5th day of culture, islets were rinsed twice with serum free DME/F12 medium (1:1, v/v, Gibco, Paisley, Scotland) and were incubated in this medium supplemented with taurine at 0.3 or 3 mmol/l for 48 hours. For the final 24 hours of this incubation, IL1β (Endogen, Woburn, Mass.) was added to the incubation medium at a level of 50 U/ml. Apoptosis was quantified by confocal microscopy using TUNEL method, as outlined in Example 1.

## CC(=O)N(O)CCCCCNC(=O)CCC(=O)N(O)CCCCCNC(=O)CCC(=O)N(O)CCCCCN [DFO, desferioxamine, reference compound]
Fetal islet β cells; LP and C islets, data not shown
  reduction of the cell death induced by SNP: about 30%

## CSCC[C@H](N)C(=O)O [methionine, L-Methionine]
Fetal islet β cells; 0.1 mmol/l methionine, regardless of diet
  apoptosis rate: significantly decreased
Fetal islet β cells; 1.0 mmol/l methionine vs physiological concentration
  apoptosis rate: did not provide additional protection
[1]; methionine 0.1 or 1 mmol/l
  luminol chemiluminescence (peroxynitrite quenching): No change

## NCCC(=O)O [β-alanine, 3-aminopropanoic acid, reference compound]
Fetal islet β cells; β-alanine 0.3 or 3 mmol/l
  rate of apoptosis / protection against damage induced by NO: no protective effect
[1]; β-alanine 0.3 or 3 mmol/l
  luminol chemiluminescence (peroxynitrite quenching): no change

## IL 1β: macrophage-derived proinflammatory cytokine used to induce islet cell apoptosis
Fetal islet cells
  apoptosis level of fetal islets: increased the apoptosis level
